Reference: PMC6152131, “Pharmacokinetic Study of Biotransformation Products from an Anxiolytic Fraction of Tilia americana” (Molecules : A Journal of Synthetic Chemistry and Natural …, 2017)

How the values were obtained:
[1] = Pharmacokinetic analysis, two-compartment model (PKSolver); format: in vivo, ICR mice
Protocol: The data shown in Table 2 were applied to the program PKSolver. After a single oral administration of 200 mg/kg of the anxiolitic fraction of T. americana, the behavior of the concentration-time data allowed us to determine the main pharmacokinetic parameters under a two-compartment model (Table 3), and the same program provided the graphical behavior of the variables and the adjustment to the two-compartment model.
(§1) To evaluate the suitability of the assay for the pharmacokinetic studies, 200 mg/kg of the active fraction was orally administered to the animals. Ten animals were used in each group at different times (0, 5, 10, 15, 30, 60, 120, 240, 480, 720, and 1440 min). Pharmacokinetic calculations were performed using the observed data. All data was subsequently processed using the PKSolver add-in program for Microsoft Excel written in Visual Basic for Applications. All values obtained were expressed in mean ± standard deviation.
For the pharmacokinetic assay, the selection was made either from a one-compartment or a two-compartment model, with the use of both the Akaike information criterion (AIC) and the Schwarz criterion (SC). Using these two criteria, one can select which model is more suited to being adjusted, to the point where it reaches the lowest values of the AIC or SC criteria, which means that the chosen model is more parsimonious (less parameters required) and best fits the data (low error prediction).

[2] = Stability of flavonoids and biotransformation products in mouse plasma under different handling conditions; format: in vitro ADME, mice; conditions: for Accuracy Bias 0 h / Observed Conc. 0 h / Accuracy Bias 8 h / Observed Conc. 8 h / Accuracy Bias 24 h / Observed Conc. 24 h: room temperature (25 °C); for Observed Conc. 0 h / Observed Conc. 8 h / Observed Conc. 24 h / Observed Conc. Autosampler (4 °C; 8 h) / Observed Conc. Long-term (−70 °C; 1 month): n = 6; for Accuracy Bias Autosampler (4 °C; 8 h) / Accuracy Bias Long-term (−70°C; 1 month) / Observed Conc. Autosampler (4 °C; 8 h) / Observed Conc. Long-term (−70 °C; 1 month): storage stability
Protocol: (§2) Plasma dried pulverized samples were extracted with methanol (HPLC grade, Merck). The extracts were filtered with Teflon membrane dimensions 0.45 μm by 13 mm (Millex®-LCR); 20 μL of each filtered sample was injected into the HPLC equipment. The measurements were performed in a (Waters corporation, Milford, CT, USA) 2695 HPLC with a diode array detector (Waters 2996) and processed with the Empower Pro 1.0 software. A Chromolith Performance® RP-18e 100 × 4.6 mm (Merck KGaA, Darmstadt, Germany) was used. The mobile phase consisted of a mixture of acetonitrile and water with the proportion 55:45 and a flow rate of 1 mL/min. The concentrations of the flavonoids and the biotransformation products were obtained by comparison with a pre-built calibration curve at λ = 220 nm.
[…] The investigation enclosed here expected manipulation conditions during all the sample storage and process periods, which included the stability data from the freeze/thaw, bench-top, autosampler, and long–term stability tests.
For all stability studies, fresh QC samples were evaluated by using a freshly prepared standard curve for the measurements. The concentrations obtained from all the stability studies were compared with the fresh QC samples, and the percentage concentration deviation was calculated. The analytes were considered stable in the mouse plasma when the concentration difference between the freshly prepared samples and the stability samples was less than 15%.

[3] = Plasma concentration after a single oral dose of the anxiolytic fraction (HPLC); format: in vivo, ICR mice; conditions: mouse, plasma, ICR mice, n = 10
Protocol: Eleven groups of ten animals each were randomly formed. All animals were orally administered with 200 mg/kg of the active fraction. Animals were anaesthetized with ether, and blood samples were obtained from the retroorbital sinus with a heparinized capillary, each group was examined at different times (0, 5, 10, 15, 30, 60, 120, 240, 480, 720, and 1440 min) after the active fraction was administered. […] Then the plasma samples were frozen and lyophilized. The dry plasma was subsequently used to extract and measure the concentration of the flavonoids and biotransformation products.
as §2, §1

[4] = mouse, oral 200 mg/kg anxiolytic fraction, ICR mice plasma, two-compartment model
[5] = oral 200 mg/kg anxiolytic fraction, ICR mice plasma, two-compartment model
[6] = oral 200 mg/kg anxiolytic fraction, ICR mice plasma, two-compartment model, n = 10
[7] = high nominal conc. (7.00; 44.37; 4.50; 31.25 µg/mL)
[8] = low nominal conc. (1.75; 11.02; 1.12; 1.95 µg/mL)
[9] = medium nominal conc. (3.50; 22.18; 2.24; 7.81 µg/mL)

- ka smaller than the ka of DOPAC ([1]; mouse, in vivo): 79%
- AUC(0-inf) [1, 4]: 124000 ng·h/mL
- Cmax [1, 4]: 5760 ng/mL
- Tmax [1, 4]: 0.235 h
- AUC(0-t) ([1]; mouse, oral 200 mg/kg anxiolytic fraction, ICR mice plasma, two-compartment model, read-out: AUC0→1440 (converted)): 61400 ng·h/mL
- MRT ([1]; mouse, oral 200 mg/kg anxiolytic fraction, ICR mice plasma, two-compartment model, read-out: MRT (mean residence time) (converted)): 35.4 h
- k el ([1]; mouse, oral 200 mg/kg anxiolytic fraction, ICR mice plasma, two-compartment model, read-out: k10 (apparent first-order elimination rate constant from the central compartment) (converted)): 1.5e-05 s⁻¹
- half-life ([1]; mouse, oral 200 mg/kg anxiolytic fraction, ICR mice plasma, two-compartment model, read-out: t1/2β): 25 h
- CL/F (apparent clearance) [1, 5]: 0.026 (mg/Kg)/(μg/mL)/min
- V/F (apparent volume of distribution) [1, 5]: 30.45 (mg/Kg)/(µg/mL)
- k12 (transfer rate constant central to peripheral compartment) [1, 5]: 0.009 min⁻¹
- k21 (transfer rate constant peripheral to central compartment) [1, 5]: 0.01 min⁻¹
- ka (apparent first-order absorption rate constant) [1, 5]: 0.24 min⁻¹
- t1/2ka (absorption half time) [1, 5]: 2.84 min
- t1/2α [1, 5]: 0.5847 h
- α [1, 5]: 0.02 min⁻¹
- β [1, 5]: 0.0005 min⁻¹
- A (plasma concentration coefficient, central compartment) [1, 6]: 3.49 µg/mL
- B (plasma concentration coefficient, peripheral compartment) [1, 6]: 3.36 µg/mL
- index: relation between rate constants of k12 with respect to k21 ([1]; two-compartment model): 0.9
- Accuracy Bias 0 h ([2]; high nominal conc.): 1.88%
- Observed Conc. 0 h ([2]; high nominal conc. (rutin 7.00; quercetin glucoside, quercitrin, tiliroside 44.37; kaempferol 4.50; m-HPAA, p-HPAA, DOPAC 31.25 µg/mL)): 31.40 ± 0.10 µg/mL
- Accuracy Bias 0 h ([2]; low nominal conc.): 0.47%
- Observed Conc. 0 h ([2]; low nominal conc. (rutin 1.75; quercetin glucoside, quercitrin, tiliroside 11.02; kaempferol 1.12; m-HPAA, p-HPAA, DOPAC 1.95 µg/mL)): 1.91 ± 0.2 µg/mL
- Accuracy Bias 0 h ([2]; medium nominal conc.): 0.13%
- Observed Conc. 0 h ([2]; medium nominal conc. (rutin 3.50; quercetin glucoside, quercitrin, tiliroside 22.18; kaempferol 2.24; m-HPAA, p-HPAA, DOPAC 7.81 µg/mL)): 7.80 ± 0.01 µg/mL
- Accuracy Bias 8 h ([2]; high nominal conc.): 0.90%
- Observed Conc. 8 h [2, 7]: 31.53 ± 0.19 µg/mL
- Accuracy Bias 8 h ([2]; low nominal conc.): 2.23%
- Observed Conc. 8 h [2, 8]: 1.91 ± 0.03 µg/mL
- Accuracy Bias 8 h ([2]; medium nominal conc.): 2.18%
- Observed Conc. 8 h [2, 9]: 7.98 ± 0.12 µg/mL
- Accuracy Bias 24 h ([2]; high nominal conc.): 0.30%
- Observed Conc. 24 h [2, 7]: 31.34 ± 0.07 µg/mL
- Accuracy Bias 24 h ([2]; low nominal conc.): 2.73%
- Observed Conc. 24 h [2, 8]: 1.90 ± 0.04 µg/mL
- Accuracy Bias 24 h ([2]; medium nominal conc.): 0.09%
- Observed Conc. 24 h [2, 9]: 7.82 ± 0.01 µg/mL
- Accuracy Bias Autosampler (4 °C; 8 h) ([2]; high nominal conc.): 2.73%
- Accuracy Bias Long-term (−70°C; 1 month) ([2]; high nominal conc.): 2.23%
- Observed Conc. Autosampler (4 °C; 8 h) [2, 7]: 31.34 ± 0.07 µg/mL
- Observed Conc. Long-term (−70 °C; 1 month) [2, 7]: 31.20 ± 0.19 µg/mL
- Accuracy Bias Autosampler (4 °C; 8 h) ([2]; low nominal conc.): 0.09%
- Accuracy Bias Long-term (−70°C; 1 month) ([2]; low nominal conc.): 0.90%
- Observed Conc. Autosampler (4 °C; 8 h) [2, 8]: 1.93 ± 0.04 µg/mL
- Observed Conc. Long-term (−70 °C; 1 month) [2, 8]: 1.92 ± 0.03 µg/mL
- Accuracy Bias Autosampler (4 °C; 8 h) ([2]; medium nominal conc.): 0.30%
- Accuracy Bias Long-term (−70°C; 1 month) ([2]; medium nominal conc.): 2.18%
- Observed Conc. Autosampler (4 °C; 8 h) [2, 9]: 7.82 ± 0.01 µg/mL
- Observed Conc. Long-term (−70 °C; 1 month) [2, 9]: 7.80 ± 0.12 µg/mL
- concentration at 5 min ([3]; 5 min after single oral dose of 200 mg/kg of the anxiolytic fraction, ND = not detected): 4670 ± 270 ng/mL
- concentration at 10 min ([3]; 10 min after single oral dose of 200 mg/kg of the anxiolytic fraction): 5060 ± 220 ng/mL
- concentration at 15 min ([3]; 15 min after single oral dose of 200 mg/kg of the anxiolytic fraction): 4750 ± 290 ng/mL
- concentration at 30 min ([3]; 30 min after single oral dose of 200 mg/kg of the anxiolytic fraction): 4520 ± 280 ng/mL
- concentration at 60 min ([3]; 60 min after single oral dose of 200 mg/kg of the anxiolytic fraction): 4290 ± 130 ng/mL
- concentration at 120 min ([3]; 120 min after single oral dose of 200 mg/kg of the anxiolytic fraction): 4170 ± 330 ng/mL
- concentration at 240 min ([3]; 240 min after single oral dose of 200 mg/kg of the anxiolytic fraction): 4110 ± 230 ng/mL
- concentration at 480 min ([3]; 480 min after single oral dose of 200 mg/kg of the anxiolytic fraction): 4040 ± 250 ng/mL
- concentration at 720 min ([3]; 720 min after single oral dose of 200 mg/kg of the anxiolytic fraction): 3940 ± 190 ng/mL
- concentration at 1440 min ([3]; 1440 min after single oral dose of 200 mg/kg of the anxiolytic fraction): 3790 ± 280 ng/mL
Compound: O=C(O)Cc1cccc(O)c1 [m-HPAA, meta-hydroxyphenylacetic acid]
